#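 Protocol summary: plate cells (96-well), add compound at 5 concentrations, incubate 48 h, interpolate endpoints linearly. Here, GI50 denotes the concentration required for 50% inhibition of growth.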 Calls of active or inactive are those of the source. No stated cut-off is given here; in the data, active = GI50 up to about 1.1 µM and inactive = higher.
# How the values were obtained:
# Assay in all cases: NCI anticancer screen, dose series, 48 h
# [1] = system: HT-29
# [2] = system: SK-MEL-2
# [3] = system: MDA-MB-231
# [4] = system: MOLT-4
# [5] = system: HCT-116
# [6] = system: SK-MEL-5
# [7] = system: SF-295
# [8] = system: CAKI-1
# [9] = system: ACHN
# [10] = system: SW-620
# [11] = system: UO-31
# [12] = system: MDA-MB-435
# [13] = system: NCI-H226
# [14] = system: M14
# [15] = system: SR
# [16] = system: 786-0
# [17] = system: CCRF-CEM
# [18] = system: SNB-75
# [19] = system: NCI-H460
# [20] = system: RXF 393
SMILES,GI50 [1],GI50 [2],GI50 [3],GI50 [4],GI50 [5],GI50 [6],GI50 [7],GI50 [8],GI50 [9],GI50 [10],GI50 [11],GI50 [12],GI50 [13],GI50 [14],GI50 [15],GI50 [16],GI50 [17],GI50 [18],GI50 [19],GI50 [20]
CCCCC(=O)/C=c1/cc(C)[nH]c2cccc3cnn1c32,60.1 µM (inactive),> 100 µM (inactive),> 100 µM (inactive),> 100 µM (inactive),> 100 µM (inactive),> 100 µM (inactive),> 100 µM (inactive),> 100 µM (inactive),> 100 µM (inactive),> 100 µM (inactive),> 100 µM (inactive),64 µM (inactive),> 100 µM (inactive),> 100 µM (inactive),48 µM (inactive),> 100 µM (inactive),> 100 µM (inactive),,,
CC(C)(CO)N1C(=O)c2ccccc2C1(O)c1ccc(Cl)cc1 (configuration not stated),> 100 µM (inactive),37.8 µM (inactive),> 100 µM (inactive),> 100 µM (inactive),> 100 µM (inactive),> 100 µM (inactive),> 100 µM (inactive),> 100 µM (inactive),> 100 µM (inactive),> 100 µM (inactive),63.2 µM (inactive),> 100 µM (inactive),> 100 µM (inactive),> 100 µM (inactive),,> 100 µM (inactive),> 100 µM (inactive),> 100 µM (inactive),84.9 µM (inactive),39.9 µM (inactive)
O=C(Nc1ccc(S(=O)(=O)Nc2ncccn2)cc1)c1c2ccccc2nc2ccccc12,> 100 µM (inactive),> 100 µM (inactive),> 100 µM (inactive),> 100 µM (inactive),> 100 µM (inactive),> 100 µM (inactive),> 100 µM (inactive),> 100 µM (inactive),> 100 µM (inactive),> 100 µM (inactive),> 100 µM (inactive),> 100 µM (inactive),< 0.01 µM (active),> 100 µM (inactive),55.7 µM (inactive),> 100 µM (inactive),> 10 µM (inactive),> 100 µM (inactive),> 100 µM (inactive),
COc1ccc2c3c1O[C@H]1[C@@H](O)CC[C@@]4(O)[C@@H](C2)N(C)CC[C@]314,> 100 µM (inactive),> 100 µM (inactive),> 100 µM (inactive),> 100 µM (inactive),> 100 µM (inactive),> 100 µM (inactive),> 100 µM (inactive),> 100 µM (inactive),> 100 µM (inactive),> 100 µM (inactive),> 100 µM (inactive),> 100 µM (inactive),> 100 µM (inactive),> 100 µM (inactive),> 100 µM (inactive),> 100 µM (inactive),> 100 µM (inactive),,,
O=[N+]([O-])c1ccc(N/N=C2/CC3=C2CCCCCCCCCC3)c([N+](=O)[O-])c1,> 100 µM (inactive),> 100 µM (inactive),32.7 µM (inactive),> 100 µM (inactive),> 100 µM (inactive),> 100 µM (inactive),> 100 µM (inactive),> 100 µM (inactive),> 100 µM (inactive),> 100 µM (inactive),> 100 µM (inactive),> 100 µM (inactive),> 100 µM (inactive),> 100 µM (inactive),,80.9 µM (inactive),> 100 µM (inactive),44.4 µM (inactive),> 100 µM (inactive),> 100 µM (inactive)
C#C[C@]1(O)CC[C@H]2[C@@H]3CCC4=C/C(=N/OCCN(C)C)CC[C@]4(C)[C@H]3CC[C@@]21C,6.78 µM (inactive),31.7 µM (inactive),39.9 µM (inactive),32.9 µM (inactive),25.6 µM (inactive),13.2 µM (inactive),6.97 µM (inactive),78 µM (inactive),54.7 µM (inactive),28.1 µM (inactive),62.5 µM (inactive),6.7 µM (inactive),27.3 µM (inactive),15 µM (inactive),12.1 µM (inactive),29.2 µM (inactive),16.3 µM (inactive),30.1 µM (inactive),21.8 µM (inactive),
C/C(=C\[Si](C)(C)c1ccco1)C(C)(O)[C@H](C)O (some centres not stated),41 µM (inactive),91.6 µM (inactive),> 100 µM (inactive),33.4 µM (inactive),41.6 µM (inactive),40.7 µM (inactive),49.4 µM (inactive),> 100 µM (inactive),95.3 µM (inactive),84.9 µM (inactive),,45.3 µM (inactive),64.9 µM (inactive),> 100 µM (inactive),33.8 µM (inactive),44.9 µM (inactive),32.9 µM (inactive),,47.5 µM (inactive),
O=C(N/C(=C/c1ccc(Cl)cc1)c1nc2ccccc2c(=O)n1Nc1ccc([N+](=O)[O-])cc1[N+](=O)[O-])c1ccccc1,> 100 µM (inactive),,> 100 µM (inactive),> 100 µM (inactive),> 100 µM (inactive),> 100 µM (inactive),> 100 µM (inactive),> 100 µM (inactive),,> 100 µM (inactive),> 100 µM (inactive),> 100 µM (inactive),> 100 µM (inactive),> 100 µM (inactive),> 100 µM (inactive),> 100 µM (inactive),> 100 µM (inactive),> 100 µM (inactive),> 100 µM (inactive),
CCCCCCCCCCCCCCCCOCC(Cl)COP(=O)(O)OP(=O)(O)OCC1OC(n2cnc3c(N)ncnc32)C(O)C1O (configuration not stated),> 100 µM (inactive),> 100 µM (inactive),38.7 µM (inactive),> 100 µM (inactive),38.1 µM (inactive),> 100 µM (inactive),> 100 µM (inactive),> 100 µM (inactive),> 100 µM (inactive),> 100 µM (inactive),61 µM (inactive),54.7 µM (inactive),36.7 µM (inactive),83.6 µM (inactive),,> 100 µM (inactive),> 100 µM (inactive),31 µM (inactive),52.4 µM (inactive),> 100 µM (inactive)
O=C(CCCN1CCC(O)(c2ccc(Cl)cc2)CC1)c1ccc(F)cc1 [HALOPERIDOL],18.8 µM (inactive),20.7 µM (inactive),22 µM (inactive),89.7 µM (inactive),15.1 µM (inactive),15.9 µM (inactive),15.6 µM (inactive),10.1 µM (inactive),39.4 µM (inactive),18.2 µM (inactive),15.7 µM (inactive),17.5 µM (inactive),32.2 µM (inactive),18.5 µM (inactive),48.1 µM (inactive),19.4 µM (inactive),41.4 µM (inactive),23.8 µM (inactive),18.8 µM (inactive),
